Test results reported in patent US8703120B2, “Use of oncolytic herpes viruses for killing cancer stem cells” (The General Hospital Corporation, priority 2008, dated 2014).

Experiments:
Assay type in all cases: cell-based
GBM4 glioma stem cells = experiment: MTS cell viability / cell killing assay with Chou-Talalay analysis; conditions: Homo sapiens, 96 h, MTS 4 days later
Method: (§1) FIG. 10A depicts TMZ synergy with G47delta in MGMT-negative glioma stem cells (GBM4 and GBM8). GBM4 or GBM8 glioma stem cells were seeded to 96-well plates at 5000 cells per well. […] TMZ was applied first followed by G47Δ 12 hours later. MTS assay was performed to measure cell viability 4 days later.

GBM8 glioma stem cells = experiment: as above; conditions: Homo sapiens, 96 h, MTS 4 days later
Method: as §1

GBM13 glioma stem cells = experiment: MTS cell viability assay with Chou-Talalay analysis; conditions: Homo sapiens, 96 h, MTS 4 days later
Method: (§2) TMZ was applied first, with or without O6-Benzylguanine (O6-BG:40 or 80 μM), followed by G47Δ 12 hours later. MTS assay was performed to measure cell viability 4 days later.

BT74 glioma stem cells = experiment: as above; conditions: Homo sapiens, 96 h, MTS 4 days later
Method: BT74 glioma stem cells were seeded to 96-well plates at 5000 cells per well. […] TMZ was applied first, with or without O6-Benzylguanine (O6-BG:80 μM), followed by G47Δ 12 hours later. MTS assay was performed to measure cell viability 4 days later.
as §2

U87 = experiment: MTT cell viability assay with Chou-Talalay analysis; conditions: Homo sapiens, U-87 MG, 96 h, MTT 4 days later
Method: (§3) FIG. 9A depicts that temozolomide (TMZ) synergizes with oncolytic Herpes vector G47Δ in MGMT-negative glioma cell lines U87 and U373. U87 or U373 cells were seeded to 96-well plates at 3000 cells per well. The next day, 1:3 serial dilution series of Temozolomide (TMZ) (EC50 200 μM), and G47Δ (EC50 MOI=0.06) were prepared. TMZ was applied first followed by G47Δ 12 hours later. MTT assay was performed to measure cell viability 4 days later.

U373 = experiment: as above; conditions: Homo sapiens, U373 MG, 96 h, MTT 4 days later
Method: as §3

Cn1nnc2c(C(N)=O)ncn2c1=O [TMZ, temozolomide] showed an EC50 (GBM4 glioma stem cells) of 20 µM, an EC50 (GBM8 glioma stem cells) of 3 µM and an EC50 (GBM13 glioma stem cells) of 1500 µM. For the same compound, the EC50 (BT74 glioma stem cells) was 1500 µM, the EC50 (U87) was 200 µM and the EC50 (U373) was 200 µM.
